Literature values as cited in patent US6676956B1, “Oil-in-water emulsion for protecting human organs against peroxidation” (Fresenius Kabi Austria GmbH, priority 1998, dated 2004).
Blank lines part the entries; values can stand above or below the molecule they belong to.

Key:
skeletal muscles = settings: 500 mg given directly before reperfusion
[1] = per 1 g of the form

Molecule: CC(=O)Oc1c(C)c(C)c2c(c1C)CCC(C)(CCCC(C)CCCC(C)CCCC(C)C)O2 (racemic) [all-rac-tocopherolacetate]
- increase in lipid peroxides in the serum (TBARS) (skeletal muscles): prevented
- increase in serum creatine-phosphokinase during the reperfusion phase (skeletal muscles): suppressed
- ischaemia-reperfusion damage (skeletal muscles): reduced

- α-tocopherol level in the cell-associated aortic endothelium (lipidperoxidation; 0.5 mg/day via central vein catheter for 3 days): significant increase
Molecule: Cc1c(C)c2c(c(C)c1O)CCC(C)(CCCC(C)CCCC(C)CCCC(C)C)O2 (racemic) [all-rac-α-tocopherol, 2,5,7, 8 tetramethyl-2-(4′,8′,12′-trimethyltridecyl)chroman-6-ol]
- effectiveness of 1 g corresponds to that of RRR-α-tocopherol [1]: 0.74 g

Molecule: Cc1c(C)c2c(c(C)c1O)CCC(C)(CCCC(C)CCCC(C)CCCC(C)C)O2 (single isomer, unassigned) [SRR-stereoisomer, 2,5,7, 8 tetramethyl-2-(4′,8′,12′-trimethyltridecyl)chroman-6-ol]
- effectiveness of 1 g corresponds to that of RRR-α-tocopherol [1]: 0.31 g

- vitamin E concentration in the plasma (lipidperoxidation; 0.5 mg/day intravenously for 3 days vs 1.0 mg/day orally): significantly higher
Molecule: vitamin E
- concentration of TBARS in the plasma (lipidperoxidation; 0.5 mg/day intravenously for 3 days vs control animals): significantly lower
